Test results reported in US9441018B2, “Gene from tidal flat metagenome and a novel protein displaying both phospholipase and lipase activities” (KOREA RESEARCH INSTITUTE OF BIOSCIENCE AND BIOTECHNOLOGY, priority 2011, dated 2016).
Several values for one entry are separate records, joined by “and”; a condition that tells them apart may be missing. Identical values can stand only once. Like-named read-outs stand apart in the source and are kept apart here.

Key:
[1] = tested on: phospholipase/lipase MPIaG; type: biochemical, tidal flat metagenome
[2] = tested on: phospholipase/lipase MPIaG
Description: Particularly, enzyme activity was measured by the following two methods. […] The second method was spectrophotometric assay as standard method of the present invention. […] The increasing rate of para-nitrophenol hydrolyzed from the substrate was continuously measured at OD405. Unless informed otherwise, p-nitrophenyl caprate (C10) was used as a substrate. 1 unit (U) of enzyme was defined as the enzyme amount capable of producing 1 μmol of para-nitrophenol via hydrolysis.

Row | SMILES | Enzyme activity relative value (%) ([1]; additive 1 mM) | Enzyme activity relative value (%) ([1]; additive 5 mM) | Enzyme activity relative value (%) ([1]; additive 10 mM) | Enzyme activity relative value (%) ([2]; organic solvent 20%) | Enzyme activity relative value (%) ([2]; organic solvent 30%) | Enzyme activity relative value (%) ([2]; organic solvent 50%) | Enzyme activity relative value (%) ([2]; organic solvent 60%) | other results
1 | OCCS [2-mercaptoethanol] | 105 | 108 | 80 | – | – | – | – | –
2 | [Cl][Ni][Cl] [NiCl2] | 62 | 23 | 7 | – | – | – | – | –
3 | CC#N [Acetonitrile] | – | – | – | 100 | 99 | 98 | 99 | –
4 | [Ca+2].[Cl-].[Cl-] [CaCl2] | 466 | 1015 | 994 | – | – | – | – | increase of enzyme activities [1]: approximately 10 times
5 | O=C(O)CN(CCN(CC(=O)O)CC(=O)O)CC(=O)O [EDTA, ethylenediaminetetraacetic acid] | – | – | – | – | – | – | – | effect on enzyme activities (in words) [1]: strongly inhibited
6 | O[C@H](CS)[C@H](O)CS (racemic) [DTT, dithiothreitol] | 93 | 107 | 105 | – | – | – | – | –
7 | [Cl-].[Cl-].[Mg+2] [MgCl2] | 105 | 198 | 142 | – | – | – | – | –
8 | O=S(=O)([O-])[O-].[Fe+2] [FeSO4] | 137 | 142 | 151 | – | – | – | – | –
9 | CN(C)C=O [DMF, dimethylformamide] | – | – | – | 99 | 100 | 93 | 98 | –
10 | CC(C)=O [Acetone] | – | – | – | 96 | 100 | 96 | 99 | –
11 | O=S(=O)(F)Cc1ccccc1 [PMSF, phenyl methyl sulfonyl fluoride] | 94 | 107 | 105 | – | – | – | – | –
12 | C[S+](C)[O-] [DMSO, dimethyl sulfoxide] | – | – | – | 98 | 97 | 98 | 81 | –
13 | CCO [Ethanol] | – | – | – | 100 | 95 | 94 | 98 | –
14 | CO [Methanol] | – | – | – | 100 | 101 | 93 | 98 | –
15 | [Cl][Cu][Cl] [CuCl2] | 135 | 32 | 11 | – | – | – | – | –
16 | CC(C)O [2-propanol] | – | – | – | 101 | 97 | 96 | 99 | –
17 | [Cl-].[Cl-].[Zn+2] [ZnCl2] | 107 | 9 | 5 | – | – | – | – | –
18 | [Cl-].[Cl-].[Co+2] [CoCl2] | – | – | – | – | – | – | – | Enzyme activity relative value (%) [1]: 120% and 177% and 116%
